From PMC5571359, “Screening the Medicines for Malaria Venture Pathogen Box across Multiple Pathogens Reclassifies Starting Points for Open-Source Drug Discovery” (Antimicrobial Agents and Chemotherapy, 2017)
Where two headings read alike, the source gives them in different places.

How the values were obtained:
[1] = tested on: NF54-pfs16-LUC-GFP stage IV gametocytes; experiment: Plasmodium falciparum late stage gametocyte (LSG) image-based assay; type: cell-based; conditions: Plasmodium falciparum
[2] = tested on: T. b. brucei 427 bloodstream trypanosomes; experiment: T. b. brucei resazurin viability assay; type: cell-based, Trypanosoma brucei brucei; conditions: for IC50: Trypanosoma brucei
[3] = tested on: L. donovani MHOM/IN/80/DD8 intracellular amastigotes; experiment: Leishmania donovani intracellular amastigote assay in THP-1 cells; type: cell-based; conditions: Leishmania donovani
[4] = tested on: HEK293 cells; experiment: HEK293 resazurin cell cytotoxicity assay; conditions: Homo sapiens, HEK293, read-out: HEK % Inhibition 20uM/IC50 Discovery Biology (IA)
[5] = tested on: Candida albicans biofilm formation; design: method as in PMID 27795383; conditions: cited from earlier work
[6] = tested on: HepG2; conditions: ref Pbox supporting information; cited from earlier work
[7] = tested on: Plasmodium falciparum 3D7 asexual blood stage
[8] = tested on: 3T3 host cells; experiment: T. cruzi assay, activity against 3T3 host cells; type: cell-based; conditions: reference compound set; IA = inactive at 16.4 μM
In short: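 3T3 cells were seeded on collagen-coated plates, incubated 24 h at 37 °C, infected with T. cruzi at MOI 5:1, and washed free of extracellular parasites after a further 24 h. Following 48 h compound exposure, cells were fixed, stained with Hoechst 33342 and HCS CellMask Green, and imaged by high-content analysis.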

[9] = tested on: Plasmodium falciparum 3D7 asexual blood stage; experiment: microbe, parasite or virus in culture; conditions: 3D7, read-out: IC50 P. falciparum 3D7 ABS
[10] = tested on: T. cruzi intracellular amastigotes; experiment: Intracellular anti-Trypanosoma cruzi image-based assay (amastigotes); type: cell-based; conditions: Trypanosoma cruzi; reference compound set; IA = inactive at 16.4 μM; read-out: IC50 T. cruzi intracellular amastigotes
[11] = in vitro; conditions: human

Structure (SMILES) | IC50 ([1]; NF54, read-out: Antiplasmodial IC50 (GAM / LSG), PBox compounds, stage IV gametocytes, single determination) | selectivity index (SI) T. brucei brucei versus HEK293 ([2]; HEK293) | selectivity index (SI) T. brucei brucei versus HEPG2 ([2]; HEPG2 (PBox data)) | IC50 ([2]; PBox compounds, read-out: IC50 T. brucei brucei (Discovery Biology)) | IC50 ([3]; THP-1, intracellular amastigotes, values marked *, read-out: L, donovani Discovery Biology IC50 µM) | IC50 [4] | activity against Candida albicans biofilm formation [5] | HepG2 PBox CC20 μMc [6] | activity in the Discovery Biology ABS assay [7] | inhibition at 20 µM ([1]; NF54, read-out: percent inhibition at the top screening dose, P. falciparum NF54 LSG) | IC50 ([2]; reference compound set, IA = inactive at 20 μM, read-out: IC50 T. brucei brucei trypomastigotes) | IC50 ([3]; THP-1, read-out: IC50 L. donovani n = 1, reference compound set, first test, IA = inactive at 20 μM) | IC50 ([3]; THP-1, read-out: IC50 L. donovani n = 2, reference compound set, second test, IA = inactive at 20 μM) | IC50 [8] | IC50 [9] | IC50 [10] | IC50 at 72 h [11]
Cc1[nH]c2ccccc2c1C(c1cccs1)N1CCN(C)CC1 (centres unmarked) [MMV688768] | 4.7 µM | > 13 | > 6 | 1.5 µM | 5.4 µM | > 20 µM | inhibitory activity | 8.5 µM | not ABS activity | – | – | – | – | – | – | – | –
CO[C@H]1/C=C/O[C@@]2(C)Oc3c(C)c(O)c4c(O)c(c(/C=N/N5CCN(C)CC5)c(O)c4c3C2=O)NC(=O)/C(C)=C\C=C\[C@H](C)[C@H](O)[C@@H](C)[C@@H](O)[C@@H](C)[C@H](OC(C)=O)[C@@H]1C [Rifampin, reference compound] | – | – | – | – | – | – | – | – | – | 78% | > 20 µM | > 20 µM | > 20 µM | > 16.4 µM | 2.23 µM | > 16.4 µM | > 20 µM
